pIC50: −log10 of the molar value.
What follows are compounds tested on EU-1 (assay: WST cytotoxicity assay, cancer cell EU-1). Conditions: Homo sapiens, EU-1, EU-1; no other cell line named in the cell; read-out: Cancer cell (EU-1) cytotoxicity IC50.
Type: cell-based, human
Protocol: This study used two ALL cell lines (EU-1 and EU-3) and three NB cell lines (NB-1643, SHEP1 and LA1-55N). All 5 cancer cell lines were established from pediatric ALL or NB patients and were well-characterized for their expression of MDM2 and p53-status, as reported previously. All cell lines were grown in standard culture medium (RPMI 1640 containing 10% FBS, 2 mmol/L L-glutamine, 50 U penicillin and 50 μg/mL streptomycin) at 37° C. in a humidified atmosphere containing 5% CO2.
The cytotoxic effect of MX 69 and MX69 analogs on cancer cells was determined using the water-soluble tetrazolium salt (WST) assay. Briefly, cells cultured in 96-well microtiter plates were treated with different concentrations of AQ-101 for a 20-h period. WST (25 μg/well) was then added and incubation continued for an additional 4 h, after which optical density (OD) was read with a microplate reader (test wavelength of 450 nm; reference wavelength of 620 nm).
`CC(C)C(=O)c1cccc(C2CC(=O)c3cc(S(=O)(=O)Nc4ccc(Cl)c(Cl)c4)ccc3N2)c1` (stereo not drawn) [Compound 69L145] gave a pIC50 of 5.46. `COC(=O)c1ccc([C@H]2Nc3ccc(S(=O)(=O)Nc4ccc(C)c(C)c4)cc3C3NCC[C@H]32)cc1` (stereo partly drawn) [Compound 69L35] was tested, and the pIC50 was 5.31. `CC(=O)c1cccc(NS(=O)(=O)c2ccc3c(c2)C2NCC[C@H]2C(c2ccc(C(=O)C(C)C)cc2)N3)c1` (stereo partly drawn) [Compound 69L130] was tested, and the pIC50 was under 5.00. `CC(=O)c1ccc(C2Nc3ccc(S(=O)(=O)Nc4cccc(C(C)=O)c4)cc3[C@H]3OCC[C@@H]23)cc1` (stereo partly drawn) [Compound 69L110] was tested, and the pIC50 was 6.57. Compound `Cc1ccc(NS(=O)(=O)c2ccc3c(c2)C2OCC[C@@H]2[C@@H](c2ccc(C(=O)C(C)C)cc2)N3)cc1C` (stereo partly drawn) [Compound 69L52c] has a pIC50 of 5.60 to 5.62. In the case of `CC(C)c1cccc(C2CC(=O)c3cc(S(=O)(=O)Nc4ccc5c(c4)CCO5)ccc3N2)c1` (stereo not drawn) [Compound 69L138], the pIC50 was 5.85. Compound `CCC(=O)c1cccc(NS(=O)(=O)c2ccc3c(c2)C(=O)CC(c2cccc(C(C)=O)c2)N3)c1` (stereo not drawn) [Compound 69L126, 2-(3-acetylphenyl)-4-oxo-N-(3-propionylphenyl)-1,2,3,4-tetrahydro-quinoline-6-sulfonamide] has a pIC50 of 5.94. In the case of `CCC(=O)c1cccc(NS(=O)(=O)c2ccc3c(c2)C(=O)CC(c2ccc4c(c2)CCO4)N3)c1` (stereo not drawn) [Compound 69L129], the pIC50 was 6.19. Work on `Cc1ccc(NS(=O)(=O)c2ccc3c(c2)[C@H]2OCC[C@H]2C(c2ccc(S(C)(=O)=O)cc2)N3)cc1C` (stereo partly drawn) [Compound 69L19] yielded a pIC50 of 5.39. For `Cc1ccc(NS(=O)(=O)c2ccc3c(c2)[C@H]2c4ccccc4C[C@H]2[C@H](c2ccc(Br)cc2)N3)cc1C` [Compound 69L7], the pIC50 was under 4.30. `CC(C)C(=O)c1cccc(C2CC(=O)c3cc(S(=O)(=O)Nc4ccc5c(c4)CCO5)ccc3N2)c1` (stereo not drawn) [Compound 69L140] was tested, and the pIC50 was 6.64. With `CC(=O)c1cccc(C2CC(=O)c3cc(S(=O)(=O)Nc4cccc(C(C)C)c4)ccc3N2)c1` (stereo not drawn) [Compound 69L135] the pIC50 was 6.82. Work on `Cc1ccc(NS(=O)(=O)c2ccc3c(c2)[C@H]2OCC[C@H]2C(c2ccc(B(O)O)cc2)N3)cc1C` (stereo partly drawn) [Compound 69L18] yielded a pIC50 of 4.83. In the case of `C=CC(=O)c1ccc(C2Nc3ccc(S(=O)(=O)Nc4ccc(C)c(C)c4)cc3[C@H]3OCC[C@@H]23)cc1` (stereo partly drawn) [Compound 69L71], the pIC50 was 4.52. For `Cc1cc(NS(=O)(=O)c2ccc3c(c2)C2OCC[C@H]2C(C2CCCCC2)N3)ccc1C(F)(F)F` (stereo partly drawn) [Compound 69L90], the pIC50 was 5.49. For `CC(C)C(=O)c1cccc(C2CC(=O)c3cc(S(=O)(=O)Nc4cccc(C#N)c4)ccc3N2)c1` (stereo not drawn) [Compound 69L155], the pIC50 was 5.84. Compound `Cc1ccc(NS(=O)(=O)c2cc3c(cc2Cl)N[C@@H](c2ccc(S(C)(=O)=O)cc2)[C@@H]2CC=C[C@H]32)cc1C` [Compound 69L24] has a pIC50 of under 4.30. For `Cc1ccc(NS(=O)(=O)c2ccc3c(c2)C2NCC[C@H]2[C@@H](c2ccc(S(C)(=O)=O)cc2)N3)cc1C` (stereo partly drawn) [Compound 69L43], the pIC50 was 4.92. For `CC(C)C(=O)c1ccc(C2Nc3ccc(S(=O)(=O)Nc4cccc(C(C)C)c4)cc3[C@H]3OCC[C@@H]23)cc1` (stereo partly drawn) [Compound 69L134], the pIC50 was 5.19. Work on `CC(C)C(=O)c1ccc([C@@H]2Nc3ccc(S(=O)(=O)Nc4ccc(C(F)(F)F)c(C(F)(F)F)c4)cc3C3OCC[C@H]32)cc1` (stereo in doubt) [Compound 69L92, N-(3,4-bis(trifluoromethyl)phenyl)-4-(4-isobutyrylphenyl)-2,3,3a,4,5,9b-hexahydrofuro[3,2-c]quinoline-8-sulfonamide] yielded a pIC50 of under 5.00. In the case of `Cc1ccc(NS(=O)(=O)c2ccc3c(c2)C2CCC[C@H]2[C@H](c2ccc(C(O)C(C)C)cc2)N3)cc1C` (stereo partly drawn) [Compound 69L86], the pIC50 was 5.42. With `CCc1cccc(NS(=O)(=O)c2ccc3c(c2)C(=O)C(F)C(c2cccc(C(=O)C(C)C)c2)N3)c1` (stereo not drawn) [Compound 69L168] the pIC50 was 6.47. `Cc1ccc(NS(=O)(=O)c2ccc3c(c2)C2OCC[C@H]2[C@@H](c2c[nH]c4ccccc24)N3)cc1C` (stereo partly drawn) [Compound 69L36] was tested, and the pIC50 was 5.04. In the case of `COC(=O)c1ccc([C@H]2Nc3ccc(S(=O)(=O)Nc4ccc(C)c(C)c4)cc3C3OCCC32)cc1` (stereo partly drawn) [Compound 69L12], the pIC50 was 5.41 to 5.52. `Cc1ccc(S(=O)(=O)Nc2ccc3c(c2)[C@H]2OCC[C@H]2C(c2ccc(C(=O)C(C)C)cc2)N3)cc1C` (stereo in doubt) [Compound 69L162, N-(4-(4-isobutyrylphenyl)-2,3,3a,4,5,9b-hexahydrofuro[3,2-c]quinolin-8-yl)-3,4-dimethylbenzenesulfonamide] was tested, and the pIC50 was under 5.30. `Cc1ccc(NS(=O)(=O)c2ccc3c(c2)C2OCC[C@H]2[C@@H](c2ccc(C(=O)C(C)C)cc2)N3)cc1C` (stereo partly drawn) [Compound 69L52b] gave a pIC50 of 5.80 to 5.85. Work on `CCC(=O)c1cccc(NS(=O)(=O)c2ccc3c(c2)C2OCC[C@H]2C(c2ccc(C(=O)C(C)C)cc2)N3)c1` (stereo partly drawn) [Compound 69L125, 4-(4-isobutyrylphenyl)-N-(3-propionylphenyl)-2,3,3a,4,5,9b-hexahydrofuro[3,2-c]quinoline-8-sulfonimide] yielded a pIC50 of 5.83. For `CC(=O)N1CCC([C@@H]2Nc3ccc(S(=O)(=O)Nc4ccc(C)c(C)c4)cc3C3OCC[C@H]32)CC1` (stereo partly drawn) [Compound 69L57, 4-(1-acetylpiperidin-4-yl)-N-(3,4-dimethylphenyl)-2,3,3a,4,5,9b-hexahydrofuran[3,2-c]quinolone-8-sulfonamine], the pIC50 was 4.97. `Cc1ccc(NS(=O)(=O)c2ccc3c(c2)[C@H]2NCC[C@H]2[C@H](c2ccc(C(=O)C(C)C)cc2)N3)cc1C` [Compound 69L82] gave a pIC50 of 4.53. `Cc1ccc(NS(=O)(=O)c2ccc3c(c2)C2OCC[C@@H]2[C@H](c2ccc(C(=O)C(C)C)cc2)N3)cc1C` (stereo partly drawn) [Compound 69L52d] showed a pIC50 of 6.30. In the case of `O=S(=O)(Nc1ccc(C(F)(F)F)c(C(F)(F)F)c1)c1ccc2c(c1)C1OCC[C@H]1C(C1CCCCC1)N2` (stereo partly drawn) [Compound 69L91], the pIC50 was under 5.00. `CC(=O)c1cccc(S(=O)(=O)Nc2ccc3c(c2)[C@H]2OCC[C@H]2C(c2ccc(C(=O)C(C)C)cc2)N3)c1` (stereo partly drawn) [Compound 69L163, 3-acetyl-N-(4-(4-isobutyrylphenyl)-2,3,3a,4,5,9b-hexahydrofuro[3,2-c]quinolone-8-yl)benzenesulfonamide] showed a pIC50 of 5.60. For `Cc1ccc(NS(=O)(=O)c2ccc3c(c2)C2CCC[C@H]2[C@H](c2ccc(C(=O)C(C)C)cc2)N3)cc1C` (stereo partly drawn) [Compound 69L88], the pIC50 was 5.16. Compound `Cc1ccc(NS(=O)(=O)c2ccc3c(c2)[C@H]2OCC[C@H]2C(c2ccc(C(=O)C4CC4)cc2)N3)cc1C` (stereo partly drawn) [Compound 69L67] has a pIC50 of 5.29. With `Cc1ccc(NS(=O)(=O)c2ccc3c(c2)C(=O)CC(c2cccc(C(=O)C(C)C)c2)N3)cc1C#N` (stereo not drawn) [Compound 69L156] the pIC50 was 6.27. `CC(=O)c1cccc(NS(=O)(=O)c2ccc3c(c2)C2NCC[C@H]2[C@@H](c2ccc(C(=O)C(C)C)cc2)N3)c1` (stereo partly drawn) [69L130 trans] gave a pIC50 of under 5.00. `Cc1ccc(NS(=O)(=O)c2ccc3c(c2)[C@H]2OCC[C@H]2C(c2ccc(C(C)C)cc2)N3)cc1C` (stereo partly drawn) [Compound 69L31] gave a pIC50 of 5.37. For `CC(C)C(=O)c1ccc(C2Nc3ccc(S(=O)(=O)Nc4cccc5c4COC5=O)cc3[C@H]3OCC[C@@H]23)cc1` (stereo partly drawn) [Compound 69L146], the pIC50 was 5.42. In the case of `COC(=O)c1ccc(C2Nc3ccc(S(=O)(=O)Nc4ccc(C)c(C)c4)cc3C3NCC[C@@H]23)cc1` (stereo partly drawn) [Compound 69L34], the pIC50 was 5.46. Work on `CC(C)C(=O)c1ccc(C2Nc3ccc(S(=O)(=O)Nc4ccc(Cl)c(Cl)c4)cc3[C@H]3OCC[C@@H]23)cc1` (stereo partly drawn) [Compound 69L76] yielded a pIC50 of 5.25. In the case of `Cc1ccc(NS(=O)(=O)c2ccc3c(c2)C2[C@@H](CCN2C(=O)OC(C)(C)C)C(c2ccc(S(C)(=O)=O)cc2)N3)cc1C` (stereo partly drawn) [Compound 69L42], the pIC50 was 4.70. `COc1cc(NS(=O)(=O)c2ccc3c(c2)C(=O)CC(c2cccc(C(=O)N(C)C)c2)N3)ccc1C` (stereo not drawn) [Compound 69L161] showed a pIC50 of 6.09. Work on `COC(=O)c1ccc(C2Nc3ccc(S(=O)(=O)Nc4ccc(C)c(C)c4)cc3[C@H]3OCCC[C@@H]23)cc1` (stereo partly drawn) [Compound 69L9] yielded a pIC50 of 5.34. In the case of `Cc1ccc(NS(=O)(=O)c2ccc3c(c2)[C@H]2OCCC[C@H]2C(c2ccc(C(=O)O)cc2)N3)cc1C` (stereo partly drawn) [Compound 69L10], the pIC50 was under 4.30. For `CC(C)C(=O)c1cccc(C2CC(=O)c3cc(S(=O)(=O)Nc4cccc(C(C)C)c4)ccc3N2)c1` (stereo not drawn) [Compound 69L139], the pIC50 was 6.18. `Cc1ccc(NS(=O)(=O)c2ccc3c(c2)C2NCC[C@H]2[C@H](c2ccc(S(C)(=O)=O)cc2)N3)cc1C` (stereo partly drawn) [Compound 69L44] gave a pIC50 of 4.35. For `CCOC1C[C@@H](c2ccc(C(C)=O)cc2)Nc2ccc(S(=O)(=O)Nc3ccc(C)c(C)c3)cc21` (stereo partly drawn) [Compound 69L46], the pIC50 was 5.19. For `CC(=O)c1ccc(NS(=O)(=O)c2ccc3c(c2)[C@H]2OCC[C@H]2C(c2ccc(C(C)=O)cc2)N3)cc1` (stereo partly drawn) [Compound 69L111], the pIC50 was 5.86. Work on `COC(=O)c1ccc([C@@]2(N)C[C@H](c3ccc(Cl)cc3)c3cc(S(=O)(=O)Nc4ccc(C)c(C)c4)ccc3N2)cc1` [Compound 69L14] yielded a pIC50 of under 4.30. In the case of `O=S(=O)(Nc1ccc2c(c1)CCO2)c1ccc2c(c1)C1OCC[C@H]1C(c1ccc3c(c1)CCO3)N2` (stereo partly drawn) [Compound 69L128], the pIC50 was 5.88. Compound `Cc1ccc(NS(=O)(=O)c2ccc3c(c2)[C@H]2c4ccccc4C[C@H]2[C@H](c2ccc(C(=O)O)cc2)N3)cc1C` [Compound 69L6] has a pIC50 of 4.69. For `COC(=O)c1ccc([C@@H]2Nc3cc(Cl)c(S(=O)(=O)Nc4ccc(C)c(C)c4)cc3[C@H]3OCC[C@H]32)cc1` [Compound 69L26], the pIC50 was under 4.30. `Cc1ccc(NS(=O)(=O)c2ccc3c(c2)C(=O)CC(c2cccc(C(=O)N(C)C)c2)N3)cc1C` (stereo not drawn) [Compound 69L158] gave a pIC50 of 6.20. With `COC(=O)c1ccc(C2Nc3c(Cl)cc(S(=O)(=O)Nc4ccc(C)c(C)c4)cc3C3OCC[C@@H]23)cc1` (stereo partly drawn) [Compound 69L33] the pIC50 was under 4.30.

Source: patent US20240059658A1 (Emory University, priority 2019, published 2024)
